Each structure is given as a SMILES string.

T1 sequence (P19156 2-1034 limits assumed): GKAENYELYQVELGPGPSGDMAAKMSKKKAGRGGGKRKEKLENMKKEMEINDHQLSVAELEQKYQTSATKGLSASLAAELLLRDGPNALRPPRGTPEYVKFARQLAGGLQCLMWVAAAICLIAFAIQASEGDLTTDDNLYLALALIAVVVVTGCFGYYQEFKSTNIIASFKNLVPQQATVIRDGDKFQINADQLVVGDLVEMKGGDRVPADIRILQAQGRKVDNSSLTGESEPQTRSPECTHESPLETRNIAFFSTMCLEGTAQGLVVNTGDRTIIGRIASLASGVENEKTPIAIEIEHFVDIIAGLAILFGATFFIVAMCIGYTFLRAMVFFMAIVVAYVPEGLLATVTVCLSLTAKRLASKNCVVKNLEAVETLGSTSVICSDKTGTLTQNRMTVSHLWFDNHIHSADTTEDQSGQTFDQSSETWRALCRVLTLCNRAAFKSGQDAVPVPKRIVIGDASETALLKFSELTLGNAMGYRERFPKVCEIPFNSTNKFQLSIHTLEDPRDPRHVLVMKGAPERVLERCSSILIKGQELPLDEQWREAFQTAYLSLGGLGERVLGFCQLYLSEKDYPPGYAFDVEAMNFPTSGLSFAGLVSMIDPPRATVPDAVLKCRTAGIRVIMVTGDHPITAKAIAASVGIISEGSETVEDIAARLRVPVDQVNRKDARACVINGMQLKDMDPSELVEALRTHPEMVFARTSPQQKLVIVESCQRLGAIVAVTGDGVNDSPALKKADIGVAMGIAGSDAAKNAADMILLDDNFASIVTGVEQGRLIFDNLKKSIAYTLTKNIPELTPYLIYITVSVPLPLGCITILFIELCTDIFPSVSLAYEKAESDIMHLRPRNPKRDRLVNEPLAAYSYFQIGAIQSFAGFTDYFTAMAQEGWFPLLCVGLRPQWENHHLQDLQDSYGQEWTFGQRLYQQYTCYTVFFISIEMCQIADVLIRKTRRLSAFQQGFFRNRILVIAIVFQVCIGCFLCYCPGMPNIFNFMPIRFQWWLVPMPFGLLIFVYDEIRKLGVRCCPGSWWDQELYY
T1 sequence (P18434 whole entry partner): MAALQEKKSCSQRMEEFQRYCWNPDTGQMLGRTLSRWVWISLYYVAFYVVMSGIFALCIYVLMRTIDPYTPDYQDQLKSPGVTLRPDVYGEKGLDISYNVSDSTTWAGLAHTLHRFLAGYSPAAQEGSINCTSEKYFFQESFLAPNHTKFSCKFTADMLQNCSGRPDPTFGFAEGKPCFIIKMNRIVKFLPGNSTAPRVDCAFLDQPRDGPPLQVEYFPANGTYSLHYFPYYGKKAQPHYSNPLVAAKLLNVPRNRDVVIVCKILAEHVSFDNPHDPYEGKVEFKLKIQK

This assay has as its target T1, H+ K+ ATPase (lyophilised gastric vesicles) (Sus scrofa, UniProt P19156).
T1 construct: Lyophilised gastric vesicles were prepared from pig fundic mucosa; from tissue; host or cells: pig fundic mucosa (lyophilised gastric vesicles)
Kind of assay: K+-stimulated ATPase activity in lyophilised gastric vesicles. It counts as biochemical. Particulars: lyophilised gastric vesicles from pig fundic mucosa, 37° C., pH 7.0, 1 mM KCl, 30 minutes incubation. The method, then: The effects of a single high concentration (100 μM) of a compound of structure (I) on K-stimulated ATPase activity in lyophilised gastric vesicles was determined. Preferred compounds of structure (I) were also tested over a range of concentrations to determine IC50 values.
(i) Preparation of lyophilised gastric vesicles (H/K-ATPase)
Lyophilised gastric vesicles were prepared from pig fundic mucosa after the method of Keeling et. al. (Biochem. Pharmacol., 34, 2967, 1985).
(ii) K^+ -stimulated ATPase activity.
K^+ -stimulated ATPase activity was determined at 37° C. in the presence of the following : I0 mM Pipes/Tris buffer pH 7.0, 2 mM MgSO4, 1 mM KCl, 2 mM Na2 ATP and 3-6 μg protein/ml lyophilised gastric vesicles. After incubation for 30 minutes, the inorganic phosphate hydrolysed from ATP was determined by the method of Yoda and Hokin (Biochem. Biophys. Res. Commun. 40, 880, 1970).
Compounds of structure (I) were dissolved in dimethylsulphoxide which up to the highest concentration used had no effect on K+-stimulated ATPase activity.
The effect of the highest concentration of each compound of structure (I) on the recovery of a standard amount of inorganic phosphate wa also determined.
On to `CCCC(=O)c1cnc2c(OCCCN(C)Cc3ccccc3)cccc2c1Nc1ccccc1C` [Example 9, 3-butyryl-4-(2-methylphenylamino)-8-(3-(N-benzyl-N-methylamino)propoxy)quinoline], for which the concentration for half-maximal inhibition (IC50) (commonly the point on the concentration scale where inhibition reaches its midpoint) was 390 to 3520 nM.
The figure for `CCCC(=O)c1cnc2c(C(O)CN3CCOCC3)cccc2c1Nc1ccccc1C` (centres unmarked) [Example 7, 3-butyryl-4-(2-methylphenylamino)-8-(1-hydroxy-2-(1-morpholino)ethyl)quinoline] is 390 to 3520 nM; for `CCCC(=O)c1cnc2c(OCCN(C)C)cccc2c1Nc1ccccc1C` [Example 3, 3-butyryl-4-(2-methylphenylamino)-8-(2-dimethylaminoethoxy)quinoline] it is 390 to 3520 nM; for `CCCC(=O)c1cnc2c(OCCCN(C)C)cccc2c1Nc1ccccc1C` [Example 1, 3-butyryl-4-(2-methylphenylamino)-8-(3-dimethylaminopropoxy)quinoline] it is 390 to 3520 nM.
With `CCCC(=O)c1cnc2c(OCCCN(C)CCCc3ccccc3)cccc2c1Nc1ccccc1C` [Example 10, 3-butyryl-4-(2-methylphenylamino)-8-(3-(N-methyl-N-(3-phenylpropyl)amino)propoxy)quinoline], the IC50 lay in the range of 390 to 3520 nM.
Molecule `CCCC(=O)c1cnc2c(OCCCN3CCCC3)cccc2c1Nc1ccccc1C` [Example 4, 3-butyryl-4-(2-methylphenylamino)-8-(3-(1-pyrrolidinyl)propoxy)quinoline] showed an IC50 of 390 to 3520 nM.
In the case of `CCCC(=O)c1cnc2c(C(O)CN(C)C)cccc2c1Nc1ccccc1C` (centres unmarked) [Example 8, 3-butyryl-4-(2-methylphenylamino)-8-(1-hydroxy-2-dimethylaminoethyl)quinoline] it was 390 to 3520 nM.
In the case of `CCCC(=O)c1cnc2c(OCCCN3CCCCC3)cccc2c1Nc1ccccc1C` [Example 5, 3-butyryl-4-(2-methylphenylamino)-8-(3-piperidinopropoxy)quinoline] it was 390 to 3520 nM; in that of `CCCC(=O)c1cnc2c(NCCCN3CCOCC3)cccc2c1Nc1ccccc1C` [Example 11, 3-butyryl-4-(2-methylphenylamino)-8-(3-morpholinopropylamino)quinoline], 390 to 3520 nM.
The figure for `CCCC(=O)c1cnc2c(OCCCN(C)C)cccc2c1Nc1ccc(F)cc1C` [Example 2, 3-butyryl-4-(4-fluoro-2-methylphenylamino)-8-(3-dimethylaminopropoxy)quinoline] is 390 to 3520 nM; for `CCCC(=O)c1cnc2c(OCCCN3CCOCC3)cccc2c1Nc1ccccc1C` [Example 6, 3-butyryl-4-(2-methylphenylamino)-8-(3-morpholinopropoxy)quinoline] it is 390 to 3520 nM.

The values are drawn from US5082841A, “3-carbonyl-4-amino-8-substituted quinoline compounds useful in inhibiting gastric acid secretions” (SmithKline Beecham Intercredit B.V., priority 1989, dated 1992).
